Assay results taken from US20180184644A1, “CELL STABILIZATION” (Biomatrica, Inc., priority 2013, published 2018).
“Also recorded” adds a separate entry of the source.

Legend:
[1] = system: human neonatal fibroblasts; experiment: Cell viability by ATP content of substantially dry stored human neonatal fibroblasts; assay type: cell-based; set-up: % CELL VIABILITY 24 hr / % CELL VIABILITY 48 hr / % CELL VIABILITY 120 hr: concentration or dose not given beside the values; details: for % CELL VIABILITY 24 hr / % CELL VIABILITY 48 hr / % CELL VIABILITY 120 hr: inhibitor in predehydration and rehydration formulation; for % CELL VIABILITY 24 hr: MCS dehydration formulation 41, dry stored 24 hr at ambient temperature; for % CELL VIABILITY 48 hr: MCS dehydration formulation 41, dry stored 48 hr at ambient temperature; for % CELL VIABILITY 120 hr: MCS dehydration formulation 41, dry stored 120 hr at ambient temperature
Text: ATP content may be determined using a Cell Titer-Glo Luminescent Cell viability Assay (Promega) in accordance with the manufacturer's instructions. The addition of the Cell Titer-Glo Luminescent reagent into the cells generates a luminescent signal proportional to the amount of intracellular ATP. The amount of ATP is directly proportional to the number of cells present in culture, and it is then a homogeneous method of determining the number of viable (metabolically active) cells in the rehydrated cell preparation.
Briefly, human neonatal fibroblasts were suspended in Cascade Media 106 and seeded as 100 ul cultures at a densities of 100-5000 cells per test in 96 well plates and incubated in an environment of ambient atmosphere while maintaining an elevated CO2 level (5%-10%) and temperature of 37 C with relative humidity of 85-95%. The culture is adjusted to specific composition of predehydration formulations and media specified concentration of each apoptosis inhibitor. The cells were incubated for a period of at least one hour but not more than 3 hours hr at 37° C. The predehydration formulation was thoroughly removed and 10-15 ul of MCS dehydration formulation 41 (Table 1) was added to each well. The cells were substantially air dried at 37 C, 5% CO2, 20% relative humidity over a period of 90 minutes, stored at ambient temperature for a period of 24, 48 or 120 hours. At the appropriate time, the substantially dry stored cells were rehydrated by treating with a rehydration formulation comprising the same concentration of apoptosis inhibitor in 100-200 μl of predehydration formulation. Cell viability was determined by measuring ATP content as described herein.

[2] = system: Mammalian cells; details: trehalose-loaded dried cells stored for even few minutes; cited from earlier work
[3] = system: HeLa cells; experiment: Cell viability by Trypan Blue method of substantially dry stored HeLa cells; assay type: cell-based
Experimental: Cell viability may be measured using a Trypan Blue staining procedure. […] Cell counting was performed in 9 mm KOVA glass slides 10 with Grid Chambers (Hycor) in triplicate under a Leitz Fluovert microscope. The percentage of cell survival is reported relative to untreated control cells. Briefly, HeLa cells were substantially dry stored using predetermined predehydration formulations (SC1, salubrinal and SC3, MLS-0315763) and a subset of the dehydration formulations set forth in Table 1 for a period of seven hours and then rehydrated using the rehydration formulations listed below (RC1, salubrinal and RC3, MLS-0315763). Cell viability was assessed seven days after rehydration using the Trypan Blue method. The results are shown in Table 3 and FIG. 3A and FIG. 3B.

O=C(/C=C/c1ccccc1)NC(NC(=S)Nc1cccc2cccnc12)C(Cl)(Cl)Cl (stereo not shown) [Salubrinal]
% CELL VIABILITY 24 hr [1]: 100.0% | % CELL VIABILITY 48 hr [1]: 72.9% | % CELL VIABILITY 120 hr [1]: 109.5%

CO[C@H]1C[C@@H]2CC[C@@H](C)[C@@](O)(O2)C(=O)C(=O)N2CCCC[C@H]2C(=O)O[C@H]([C@H](C)C[C@@H]2CC[C@@H](O)[C@H](OC)C2)CC(=O)[C@H](C)/C=C(\C)[C@@H](O)[C@@H](OC)C(=O)[C@H](C)C[C@H](C)/C=C/C=C/C=C/1C [Rapamycin]
% CELL VIABILITY 24 hr [1]: 88.4% | % CELL VIABILITY 48 hr [1]: 73.2% | % CELL VIABILITY 120 hr [1]: 90.0%

O=c1cc(N2CCOCC2)oc2c(-c3ccccc3)cccc12 [LY294002, 2-(4-morpholinyl)-8-phenyl-4H-1-benzopyran-4-one]
% CELL VIABILITY 24 hr [1]: 83.8% | % CELL VIABILITY 48 hr [1]: 85.9% | % CELL VIABILITY 120 hr [1]: 98.7%

O=C(NOC[C@H](O)CO)c1ccc(F)c(F)c1Nc1ccc(I)cc1F [PD032591, N-[(2R)-2,3-dihydroxypropoxy]-3,4-difluoro-2-[(2-fluoro-4-iodophenyl)amino]-benzamide]
% CELL VIABILITY 24 hr [1]: 100.0% | % CELL VIABILITY 48 hr [1]: 85.1% | % CELL VIABILITY 120 hr [1]: 95.7%

C[S+]([O-])CCCCN=C=S [L-sulphurophane]
% CELL VIABILITY 24 hr [1]: 98.8% | % CELL VIABILITY 48 hr [1]: 65.3% | % CELL VIABILITY 120 hr [1]: 50.9%

OC[C@H]1O[C@H](O[C@H]2O[C@H](CO)[C@@H](O)[C@H](O)[C@H]2O)[C@H](O)[C@@H](O)[C@@H]1O [Trehalose]
cell survival after dry storage (in words) [2]: complete cell death | surviving / viable cells (in words) ([3]; HeLa cells, 7 hours dry storage, 7 days after rehydration): did not yield in any viable cells; also recorded: did not yield any surviving cells | % HeLa Cell Viability ([3]; dry stored seven hours, Trypan Blue seven days after rehydration): 0% | viable cells (in words) ([1]; by 24 hr of dry storage): little to no viable cells | % CELL VIABILITY 24 hr [1]: 7.5% | % CELL VIABILITY 48 hr [1]: 0.0% | % CELL VIABILITY 120 hr [1]: 0.0%
